This note sets out measurements from patent publication US9801917B2, “Composition for improving blood sugar metabolism” (SUNSTAR INC., priority 2013, dated 2017).

The subject of test [1] is mouse skeletal myotube cell line (C2C12 cells). Briefly: Measurement of sugar uptake-promoting activity (6-NBDG uptake) using skeletal myotube cells. The conditions noted are these: for sugar uptake-promoting activity (in words): 0.01 mass %, compared with extract C. Format: cell-based. The procedure:
Mouse skeletal myoblasts (C2C12 cells) were cultured in high-glucose DMEM (5790), and the cells were seeded and cultured in a black microtiter plate (produced by Falcon) at a concentration of 5000 cells/200 μL/well. The cells differentiated into myotubes were used for this experiment. Extract A and extract C obtained in the above Production Example 1 and adjusted to final concentrations of 0.02% and 0.05% were used as samples (Examples 2-1 to 2-4). A medium without any addition (Comparative Example 2-1) was used as a negative control. A medium containing insulin (10 nM) (Comparative Example 2-2) was used as a positive control.
On the day of the experiment, after the media were replaced with low-glucose DMEM (6047), starvation was performed. The media were then replaced with media containing the samples of Examples 2-1 to 2-4 and Comparative Examples 2-1 to 2-2 dissolved therein, and incubation was performed for 60 minutes. After the treatment, the media were removed and replaced with low-glucose DMEM containing 100 μM of a fluorescently labeled nonhydrolyzable sugar analog, 6-(N-(7-nitrobenz-2-oxa-1,3-diazol-4-yl)amino)-6-deoxyglucose (6-NBDG; produced by Invitrogen) dissolved therein. After the reaction was allowed to proceed for 30 minutes, the medium was removed. After washing with PBS, the fluorescence was measured at 444 nm/538 nm emission using a fluorescent plate reader.
The sugar uptake-promoting activity, in skeletal myotube cells, of each of extract C (Example 3-1) obtained in the above Production Example 1, and fractions A to C and insoluble matter (Example 3-5) obtained in the above Production Example 2 (Examples 3-2 to 3-4) was measured in the same manner as in Test Example 1-2. Further, as in Test Example 1-2, a medium with no addition was used as a negative control (Comparative Example 3-1), and a medium containing insulin (10 nM) (Comparative Example 3-2) was used as a positive control. The samples of Examples 3-1 to 3-5 were adjusted to a final concentration of 0.02 mass %.
The sugar uptake-promoting activity, in skeletal myotube cells, of extract C obtained in the above Production Example 1 (Example 4-1) and seven compounds known to be contained in persimmon leaves (Example 4-2 to 4-8), i.e., kaempferol-3-O-glucoside, quercetin-3-O-glucoside, quercetin-3-O-galactoside, (+)-catechin, epigallocatechin gallate, rutin, and gallic acid was measured in the same manner as in Test Example 1-2. Further, as in Test Example 1-2, a medium with no addition was used as a negative control (Comparative Example 4-1), and a medium with insulin (10 nM) was used as a positive control (Comparative Example 4-2). The samples obtained in Example 4-1 to 4-8 were adjusted to a final concentration of 0.01 mass %.
The sugar uptake-promoting effects of extract C obtained in the above Production Example 1 (Example 5-1), fraction B obtained in the above Production Example 2 (Example 5-2), and fractions F to L (Examples 5-3 to 5-9) obtained in the above Production Example 3 on skeletal myotube cells were measured in the same manner as in Test Example 2. A medium with no addition was used as a negative control (Comparative Example 5-1), and media with insulin (10 nM) (Comparative Example 5-2), with insulin (100 nM) (Comparative Example 5-3), and with AICAR (final concentration: 3 mM) (Comparative Example 5-4) were used as positive controls. The samples of Examples 5-1 to 5-9 were adjusted to a final concentration of 0.02 mass %. […]

The subject of another test is AMP kinase. Briefly: Measurement of AMP kinase phosphorylation activity (Western blot pAMPK/tAMPK) in C2C12 cells. It counts as cell-based, mouse. The conditions noted are these: Test Example 1-1; positive control, final concentration 2 mM; relative value, negative control = 1. On the procedure: Persimmon leaf extracts A to E (powders) that had been dissolved in media to a final concentration of 0.02% were used as samples (Examples 1-1 to 1-5). A medium without any addition was used as a negative control (Comparative Example 1-1). A medium containing AICAR (final concentration: 2 mM) was used as a positive control (Comparative Example 1-2). Subsequently, a mouse skeletal myotube cell line (C2C12 cells) was seeded onto a 6-well cell culture plate and cultured in a DMEM medium containing 10% fetal bovine serum and a 1% antibacterial agent at 37° C., 5% carbon dioxide for 3 days.
When the cells became confluent, the medium was replaced with a DMEM medium containing 1% fetal bovine serum, and the cells were further cultured and fully differentiated. After the medium was again replaced with a fresh medium, the samples of Examples 1-1 to 1-5 and Comparative Examples 1-1 to 1-2 were added, and the cells were cultured at 37° C., 5% carbon dioxide. […]
The cell lysate was sonicated and then centrifuged to obtain a supernatant. […] The protein concentration of each supernatant was measured. […]
Western blotting was performed in the following manner. […] Chemiluminescence was detected using a CCD camera imager (produced by GE Healthcare). The degree of the activity was expressed as a relative value with the value of the negative control being defined as 1.

Where [2] appears, read: Test Example 3, final concentration 0.01 mass %, control = 1.00.

In test [1] (setting [2]), `O=c1c(O[C@@H]2O[C@H](CO)[C@@H](O)[C@H](O)[C@H]2O)c(-c2ccc(O)cc2)oc2cc(O)cc(O)c12` [Kaempferol-3-glucoside, kaempferol-3-O-glucoside] registered a Relative fluorescence intensity of 0.91.

In turn, `C[C@@H]1O[C@@H](OC[C@H]2O[C@@H](Oc3c(-c4ccc(O)c(O)c4)oc4cc(O)cc(O)c4c3=O)[C@H](O)[C@@H](O)[C@@H]2O)[C@H](O)[C@H](O)[C@H]1O` [Rutin, rutin] registered a Relative fluorescence intensity in test [1] (setting [2]) of 0.91.

In the case of `O=c1c(O[C@@H]2O[C@H](CO)[C@@H](O)[C@H](O)[C@H]2O)c(-c2ccc(O)c(O)c2)oc2cc(O)cc(O)c12` [Quercetin-3-glucoside, quercetin-3-O-glucoside], the “sugar uptake-promoting activity (in words)” value in test [1] (Test Example 3) is recorded as “as high as Example 4-1”. In addition, the Relative fluorescence intensity in test [1] (setting [2]) stood at 2.26.

As to `O=C(O)c1cc(O)c(O)c(O)c1` [Gallic acid, gallic acid], in test [1] (Test Example 3), the “sugar uptake-promoting activity (in words)” value is listed as “as high as Example 4-1”. In test [1] (setting [2]), this compound had a Relative fluorescence intensity of 1.69.

As for insulin, the Relative fluorescence intensity in test [1] (Test Example 1-2, positive control 10 nM, no addition = 1.00) is listed as 1.32; in test [1] (Test Example 2, positive control 10 nM, no addition = 1.00), 1.25; in test [1] (Test Example 3, positive control 10 nM, control = 1.00), 1.43; in test [1] (Test Example 4, positive control 10 nM, control = 1.00), 1.62; in test [1] (Test Example 4, positive control 100 nM, control = 1.00), 1.74.

The compound `Oc1cc(O)c2c(c1)O[C@H](c1ccc(O)c(O)c1)[C@@H](O)C2` [(+)-catechin] displayed a Relative fluorescence intensity in test [1] (setting [2]) of 1.09.

Turning to `NC(=O)c1ncn([C@@H]2O[C@H](CO)[C@@H](O)[C@H]2O)c1N` [AICAR], in the test with AMP kinase, the pAMPK/tAMPK ratio was 5.60. The compound also came in with a Relative fluorescence intensity in test [1] (Test Example 4, positive control 3 mM, control = 1.00) of 1.96.

Regarding `O=C(O[C@@H]1Cc2c(O)cc(O)cc2O[C@@H]1c1cc(O)c(O)c(O)c1)c1cc(O)c(O)c(O)c1` [Epigallocatechin gallate, epigallocatechin gallate], in test [1] (Test Example 3), the “sugar uptake-promoting activity (in words)” value was “as high as Example 4-1”. Moreover, in test [1] (setting [2]), the Relative fluorescence intensity was 1.70.

In turn, `O=c1c(O[C@@H]2O[C@H](CO)[C@H](O)[C@H](O)[C@H]2O)c(-c2ccc(O)c(O)c2)oc2cc(O)cc(O)c12` [Quercetin-3-galactoside, quercetin-3-O-galactoside] returned a Relative fluorescence intensity in test [1] (setting [2]) of 0.70.
